This is an account of results in PubChem BioAssay (NCI).

Where “and” joins values, the source holds several entries; their conditions need not be identical. Equal entries are not always repeated.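 A five-concentration, 48-hour dose response in 96-well plates underlies each endpoint, interpolated linearly between surrounding concentrations. At the GI50, growth is halved. TGI: concentration producing complete growth inhibition.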 A value given as a limit tells only on which side of the number the result lay.

For one assay, the system named is SNB-19 CNS. As to the kind of experiment: DTP human tumour cell line panel, 48 h.
Broadly, the GI50 is the concentration giving 50% growth inhibition. What is called TGI is the concentration giving total growth inhibition. Low values mean more potent growth arrest, high ones less potent growth arrest. In the case of `CN(CCO)c1ccc(N2Cc3ccccc3OC3=C2C(=O)c2c(O)ccc(O)c2C3=O)cn1`, the GI50 was 465 nM and the TGI is 1.67 µM.
On to `CC[C@H]1CN2CCc3cc(OC)c(OC)cc3[C@@H]2C[C@@H]1C[C@H]1NCCc2c1[nH]c1ccc(O)cc21`, for which the GI50 was 24.9 nM and 63.6 nM.
Regarding `CCCCCOc1ccc(/C=N/Nc2cc(C)nc3ccc(Br)cc23)cc1`, the GI50 was 1960 nM and the TGI was determined as 3.71 µM.
Regarding `CC(=O)Oc1ccccc1C(=O)Nc1ncc([N+](=O)[O-])s1`, the GI50 was 2050 nM; the TGI was 45.7 µM and > 100 µM.
For `CCN(Cc1ccccc1C)c1ccc(CO)c(Cl)c1`, the GI50 was 17800 nM and the TGI came out at 52.8 µM.
For `O=C(O)CC(NC(=O)CP(=O)(O)O)C(=O)O` (stereo unspecified) the same measures were 72600 nM and greater than 10000 µM.
In the same order, the values of `Cn1cc(C2=C(c3cccc(Br)c3)C(=O)NC2=O)c2ccccc21` are greater than 25000 nM and greater than 25 µM.
Regarding `COc1ccc(-c2ccc(-c3ccc(C(=N)N)s3)s2)cc1`, the GI50 is 310 nM and the TGI was 1.41 µM.
`COC(=O)/C=C/c1c(CC=C(C)C)ncn1C` had a TGI greater than 100 µM.
`OCc1ccn2c1[C@@H](O)CC2` had a TGI greater than 100 µM.
With `Cc1[nH]c(/C=C2\C(=O)Nc3ccccc32)c(C)c1CCC(=O)O`, the GI50 was 20900 nM and the TGI was greater than 100 µM.
In turn, `c1ccc2c(c1)c1c(c3ccccc32)CN2CCCC2C1` (stereo unspecified) came in with a TGI greater than 22.5 µM.
Same read-out and setting: for `O=S(=O)(c1ccccc1)C1CN2OC1(S(=O)(=O)c1ccccc1)CC2c1ccc(Br)cc1` (stereo unspecified) the value was greater than 100 µM.
Turning to `O=C(c1ccc(/C=C/c2n[nH]c3ccccc23)cc1)N1CCNCC1`, the GI50 is 4260 nM and 15800 nM; the TGI was > 10 µM and 33.2 µM.
As for `CCOC(=O)c1c(NC(=O)c2cccc(C(F)(F)F)c2)sc2c(CN(C)C)c(O)ccc12`, the GI50 was 10600 nM and the TGI came out at 22.8 µM.
In the same order, the values of `O=C(Nc1ccc(-n2ccc3c(NC(=O)c4ccccc4)nccc32)cc1)Nc1ccc(Cl)c(Cl)c1` are 1130 nM and 4.4 µM.

Another assay has as its system CCRF-CEM leukemia. The assay can be described thus: DTP human tumour cell line panel, 48 h.
For `O=C1NC(=O)/C(=C\c2ccccc2)C2=C1CCCC2`, the GI50 was 3700 nM and the TGI is greater than 37.9 µM.
In the same order, the values of `CN(CCO)c1ccc(N2Cc3ccccc3OC3=C2C(=O)c2c(O)ccc(O)c2C3=O)cn1` are 56.6 nM and 0.548 µM.
Turning to `CC[C@H]1CN2CCc3cc(OC)c(OC)cc3[C@@H]2C[C@@H]1C[C@H]1NCCc2c1[nH]c1ccc(O)cc21`, the GI50 was 12.9 nM and 20.7 nM; the TGI is 0.239 µM and 0.054 µM and 0.326 µM.
For the compound `CCCCCOc1ccc(/C=N/Nc2cc(C)nc3ccc(Br)cc23)cc1`, the GI50 is 1540 nM and the TGI came to 3.51 µM.
For `CC(=O)Oc1ccccc1C(=O)Nc1ncc([N+](=O)[O-])s1`, the GI50 was 2140 nM and the TGI worked out at 15.1 µM.
On to `CCN(Cc1ccccc1C)c1ccc(CO)c(Cl)c1`, for which the GI50 is 15500 nM and the TGI was determined as 38.2 µM.
For the compound `O=C(O)CC(NC(=O)CP(=O)(O)O)C(=O)O` (stereo unspecified), the TGI is greater than 10000 µM.
Consider `Cn1cc(C2=C(c3cccc(Br)c3)C(=O)NC2=O)c2ccccc21`, for which the GI50 was 12300 nM and the TGI was greater than 25 µM.
For `COc1ccc(-c2ccc(-c3ccc(C(=N)N)s3)s2)cc1`, the GI50 was 208 nM and the total growth inhibition concentration (TGI) came to 0.485 µM.
`COC(=O)/C=C/c1c(CC=C(C)C)ncn1C` registered a TGI greater than 100 µM.
Same read-out and setting: for `OCc1ccn2c1[C@@H](O)CC2` the value was greater than 100 µM.
For the compound `Cc1[nH]c(/C=C2\C(=O)Nc3ccccc32)c(C)c1CCC(=O)O`, the GI50 is 28300 nM and the TGI is greater than 100 µM.
As for `c1ccc2c(c1)c1c(c3ccccc32)CN2CCCC2C1` (stereo unspecified), the TGI was determined as 15.5 µM.
The same measure, in the same setting: in the case of `O=S(=O)(c1ccccc1)C1CN2OC1(S(=O)(=O)c1ccccc1)CC2c1ccc(Br)cc1` (stereo unspecified) it was greater than 100 µM.
For `O=C(c1ccc(/C=C/c2n[nH]c3ccccc23)cc1)N1CCNCC1`, the GI50 was 6030 nM and 10400 nM; the TGI is > 10 µM and 75.8 µM.
`CCOC(=O)c1c(NC(=O)c2cccc(C(F)(F)F)c2)sc2c(CN(C)C)c(O)ccc12`: the GI50 was 3410 nM and the TGI came out at 11.7 µM.
Regarding `O=C(Nc1ccc(-n2ccc3c(NC(=O)c4ccccc4)nccc32)cc1)Nc1ccc(Cl)c(Cl)c1`, the GI50 is 252 nM and the TGI was determined as 1.93 µM.

A further assay deals with HT29 colon. As to the kind of experiment: DTP human tumour cell line panel, 48 h.
As to `O=C1NC(=O)/C(=C\c2ccccc2)C2=C1CCCC2`, the GI50 was 14900 nM and the TGI stood at 44.1 µM.
In the same order, the values of `CN(CCO)c1ccc(N2Cc3ccccc3OC3=C2C(=O)c2c(O)ccc(O)c2C3=O)cn1` are 172 nM and 0.468 µM.
Regarding `CC[C@H]1CN2CCc3cc(OC)c(OC)cc3[C@@H]2C[C@@H]1C[C@H]1NCCc2c1[nH]c1ccc(O)cc21`, the GI50 is 27.1 nM and 33.2 nM; the TGI was 0.0862 µM and 0.341 µM and 0.11 µM.
Consider `CCCCCOc1ccc(/C=N/Nc2cc(C)nc3ccc(Br)cc23)cc1`, for which the GI50 is 1940 nM and the TGI worked out at 4.24 µM.
As to `CC(=O)Oc1ccccc1C(=O)Nc1ncc([N+](=O)[O-])s1`, the GI50 is 3370 nM; the TGI is 13.5 µM and 97.5 µM.
With `CCN(Cc1ccccc1C)c1ccc(CO)c(Cl)c1`, the GI50 is 9970 nM and the TGI was determined as 26.3 µM.
Regarding `O=C(O)CC(NC(=O)CP(=O)(O)O)C(=O)O` (stereo unspecified), the TGI is greater than 10000 µM.
As for `Cn1cc(C2=C(c3cccc(Br)c3)C(=O)NC2=O)c2ccccc21`, the GI50 is greater than 15000 nM and the TGI is greater than 25 µM.
